Results: ChEMBL document CHEMBL1201862, “PubChem BioAssay data set” (2004)
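Briefly, cells in 96-well plates were exposed to five compound concentrations for 48 h, and endpoints were estimated by linear interpolation. The concentration for 50% growth inhibition is given as GI50.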 The source made the active and inactive calls. Cut-off read from the data, not from the text of the source: active = GI50 up to about 1.1 µM and inactive = higher.

Legend:
Test in all cases: NCI anticancer screen, dose series, 48 h
HOP-18 = system: HOP-18
LXFL 529 = system: LXFL 529
SNB-78 = system: SNB-78
DMS-114 = system: DMS-114
XF498 = system: XF498
M19-MEL = system: M19-MEL
KM-20L2 = system: KM-20L2
DMS-273 = system: DMS-273
RXF 631 = system: RXF 631

| SMILES | GI50 (HOP-18) | GI50 (LXFL 529) | GI50 (SNB-78) | GI50 (DMS-114) | GI50 (XF498) | GI50 (M19-MEL) | GI50 (KM-20L2) | GI50 (DMS-273) | GI50 (RXF 631) |
| --- | --- | --- | --- | --- | --- | --- | --- | --- | --- |
| COc1cc(/C=C2\Cc3ccccc3C2=O)cc(OC)c1OC | > 100 µM (inactive) | > 100 µM (inactive) | > 100 µM (inactive) | > 100 µM (inactive) | > 100 µM (inactive) | > 100 µM (inactive) | > 100 µM (inactive) | > 100 µM (inactive) | > 100 µM (inactive) |
| Cc1ccc2oc(=O)cc(CC(=O)O)c2c1 | > 100 µM (inactive) | > 100 µM (inactive) |  |  | 24.5 µM (inactive) | > 100 µM (inactive) | > 100 µM (inactive) | > 100 µM (inactive) | > 100 µM (inactive) |
| Cc1c(C(=O)CC(=O)C(=O)Nc2c(C(C)C)cccc2C(C)C)[n+]([O-])c2ccccc2[n+]1[O-] |  | 11.1 µM (inactive) | 12.4 µM (inactive) | 2.59 µM (inactive) | 3.05 µM (inactive) | 1.99 µM (inactive) | 4.55 µM (inactive) | 3.4 µM (inactive) | 3.3 µM (inactive) |
| CC(C)(C)C1CCN(C(=O)c2ccccc2)CC1 | 84.1 µM (inactive) | 70 µM (inactive) | > 100 µM (inactive) | 28.8 µM (inactive) | < 0.01 µM (active) | > 100 µM (inactive) | > 100 µM (inactive) | > 100 µM (inactive) |  |
| [O-][S+]1Nc2c(Cl)cc(Cl)c(Cl)c2S1 (stereo not given) | > 100 µM (inactive) | > 100 µM (inactive) | > 100 µM (inactive) | 76.2 µM (inactive) |  | > 100 µM (inactive) | > 100 µM (inactive) | > 100 µM (inactive) |  |
| C/C(=N\N)C(CN1CCOCC1)C(c1ccccc1)c1c(O)c2ccccc2oc1=O (stereo not given) |  | > 100 µM (inactive) | > 100 µM (inactive) | > 100 µM (inactive) |  | > 100 µM (inactive) | > 100 µM (inactive) | > 100 µM (inactive) |  |
| CC(C)(C)NNc1c([N+](=O)[O-])cnn(-c2ccccc2)c1=O | 16.7 µM (inactive) | 1.78 µM (inactive) | 15.6 µM (inactive) |  | 2.55 µM (inactive) | 2.47 µM (inactive) | 6.44 µM (inactive) | 3.2 µM (inactive) |  |
| CC(Nc1ccc(S(=O)(=O)NC(=N)N)cc1)c1c2ccccc2nc2ccccc12 (stereo not given) |  | 28.8 µM (inactive) |  | 31.7 µM (inactive) | 15.8 µM (inactive) | 34.4 µM (inactive) | 31.8 µM (inactive) | 28.3 µM (inactive) | 26 µM (inactive) |
| O=c1[nH]c2cc([N+](=O)[O-])ccc2nc1/C(=N\NO)C(O)c1ccc([N+](=O)[O-])cc1 (stereo not given) |  | > 100 µM (inactive) | > 100 µM (inactive) | 32.6 µM (inactive) | > 100 µM (inactive) | > 100 µM (inactive) | 32.2 µM (inactive) | > 100 µM (inactive) | > 100 µM (inactive) |
| S=P1(Sc2ccccc2)Oc2ccc3ccccc3c2-c2c(ccc3ccccc23)O1 | > 92.5 µM (inactive) |  | > 100 µM (inactive) | > 58.6 µM (inactive) | > 100 µM (inactive) | > 100 µM (inactive) | 67.1 µM (inactive) | > 100 µM (inactive) |  |
| Cc1nc(-n2nc(-c3ccccc3)cc2-c2ccccc2)sc1C(=O)/C=C/c1ccc([N+](=O)[O-])cc1 | > 100 µM (inactive) |  | 61.9 µM (inactive) |  |  | 20.3 µM (inactive) | 33.7 µM (inactive) | 20.8 µM (inactive) | 23 µM (inactive) |
| O=C(O)CCC1c2[nH]c3ccccc3c2CCN1Cc1ccccc1 (stereo not given) | > 100 µM (inactive) | > 100 µM (inactive) | > 100 µM (inactive) | > 100 µM (inactive) |  | > 100 µM (inactive) | > 100 µM (inactive) | > 100 µM (inactive) | > 100 µM (inactive) |
| COc1ccc(/N=N/c2c(-c3ccccc3)nn(C(=O)CC(=O)Nc3ccc(OC)cc3)c2-c2ccccc2)cc1 | 84.3 µM (inactive) | 60.5 µM (inactive) | 34.6 µM (inactive) | 60 µM (inactive) | 27 µM (inactive) | > 100 µM (inactive) |  | > 100 µM (inactive) | 59.3 µM (inactive) |
| O=C1Nc2cc(F)ccc2C1=O | > 100 µM (inactive) | > 100 µM (inactive) | > 100 µM (inactive) | 50.8 µM (inactive) | > 100 µM (inactive) | > 100 µM (inactive) | > 100 µM (inactive) | > 100 µM (inactive) |  |
| O=C(O)CCSC(=O)Nc1ccccc1F |  | > 100 µM (inactive) | > 100 µM (inactive) | > 100 µM (inactive) |  |  | > 100 µM (inactive) | > 100 µM (inactive) |  |
| O=C1NC(=O)C(=O)C(c2nc3ccccc3s2)C1=O | > 100 µM (inactive) | > 100 µM (inactive) | > 100 µM (inactive) | > 100 µM (inactive) | > 100 µM (inactive) | > 100 µM (inactive) | > 100 µM (inactive) | > 100 µM (inactive) |  |
| O=C(CC(=O)c1cccc([N+](=O)[O-])c1)C(=O)Nc1nc([N+](=O)[O-])cs1 | > 100 µM (inactive) | 60.1 µM (inactive) | > 100 µM (inactive) | > 100 µM (inactive) |  | > 100 µM (inactive) | > 100 µM (inactive) | > 100 µM (inactive) | > 100 µM (inactive) |
| NC(=O)OCC(COc1ccc(Cl)cc1)OC(=O)c1ccccc1Cl (stereo not given) | 26.1 µM (inactive) | 24.1 µM (inactive) | 36.1 µM (inactive) | 14.6 µM (inactive) |  |  | 19.3 µM (inactive) | 20.5 µM (inactive) | 20.3 µM (inactive) |
| CCC(CC)n1cc(C(=O)NC(=O)NCCCCCOC(=O)CCCCCCCCCCC(=O)OCCCCCNC(=O)NC(=O)c2cn(C(CC)CC)c(=O)[nH]c2=O)c(=O)[nH]c1=O | > 100 µM (inactive) | 62.8 µM (inactive) | > 100 µM (inactive) | > 100 µM (inactive) | > 100 µM (inactive) | > 100 µM (inactive) | > 100 µM (inactive) | > 100 µM (inactive) | > 100 µM (inactive) |
| COC(=O)CCC(NC(=S)N/N=C/c1cccs1)C(=O)OC (stereo not given) | > 100 µM (inactive) | > 100 µM (inactive) | > 100 µM (inactive) | > 100 µM (inactive) | > 100 µM (inactive) | > 100 µM (inactive) | > 100 µM (inactive) | > 100 µM (inactive) | > 100 µM (inactive) |
| NC(=O)CCC(Nc1c2ccccc2[n+]([O-])c2ccccc12)C(=O)O (stereo not given) | 16 µM (inactive) | 31 µM (inactive) | > 100 µM (inactive) | 37.1 µM (inactive) |  | 77.3 µM (inactive) | > 100 µM (inactive) | 65 µM (inactive) |  |
| O=P(NC12CC3CC(CC(C3)C1)C2)(N1CC1)N1CC1 | > 100 µM (inactive) | 64.4 µM (inactive) | > 100 µM (inactive) | 50.9 µM (inactive) |  | > 100 µM (inactive) | > 100 µM (inactive) | 6.07 µM (inactive) |  |
| O=S(=O)(O)c1cc(S(=O)(=O)O)c2cc(/N=N/c3ccc(/N=N/c4ccc(/C=C/c5ccc(/N=[N+](/[O-])c6ccc(/C=C/c7ccc(/N=N/c8ccc(/N=N/c9ccc%10cc(S(=O)(=O)O)cc(S(=O)(=O)O)c%10c9)cc8)cc7S(=O)(=O)O)c(S(=O)(=O)O)c6)cc5S(=O)(=O)O)c(S(=O)(=O)O)c4)cc3)ccc2c1 |  |  | 53.5 µM (inactive) | > 57.4 µM (inactive) | 45.2 µM (inactive) | > 25 µM (inactive) | 58.9 µM (inactive) | > 55.6 µM (inactive) |  |
| C1=Cc2nc1c(-c1ccccc1)c1ccc([n-]1)c(-c1ccccc1)c1nc(c(-c3ccccc3)c3ccc([n-]3)c2-c2ccccc2)C=C1.[Zn+2] |  | > 100 µM (inactive) | > 100 µM (inactive) | > 100 µM (inactive) | > 100 µM (inactive) | > 100 µM (inactive) | > 100 µM (inactive) |  | > 100 µM (inactive) |
| CC(C)(C)[C@H]1CC[C@@](O)(c2ccccc2)CC1.CC(C)(C)[C@H]1CC[C@](O)(c2ccccc2)CC1 | 37.8 µM (inactive) | 21.1 µM (inactive) | 21.8 µM (inactive) | 21.1 µM (inactive) | < 0.01 µM (active) | 19.4 µM (inactive) | 16.1 µM (inactive) | 15.3 µM (inactive) |  |
